Data published in US6670187B2, “Mutant Plk protein and gene encoding the same” (Riken, priority 2000, dated 2003).
Peptide text beside a SMILES is read from it. * marks the point of attachment. Cbz = O=C(OCc1ccccc1)*

Key:
[1] = test system: Hsp90; test: In vitro binding assay of GST-fused Plk proteins with HL-60 lysate, Hsp90 detected; set-up: species or system human; conditions: 1 μg GST-fused protein, Western blotting
Method: (§1) The PCR products were cloned into pGEM-T Easy vector (Promega) and nucleotide sequence analysis was carried out by using the dideoxynucleotide chain-termination procedure with an Applied Biosystems automated sequencer. The sequence was confirmed to be identical with a previous report (Golsteyn, R., et al., J. Cell Sci., 107, 1509-1517, 1994). Plk cDNA was inserted into pGEX-2T, and GST-fused Plk was expressed in DH5α with 0.1 mM isopropyl β-D-thiogalacto-pyranoside.
(§2) For the binding assay, 1 μg of GST-fused proteins was incubated with the lysate of HL-60 cells (1 mg) in TENSV buffer. GST-fused Plk proteins were precipitated with glutathione-agarose (Sigma). Hsp90 or α-tubulin associated with GST-fused Plk proteins was detected by Western blotting using an anti-Hsp90 or anti-α-tubulin antibody.
(§3) The circle stands for the GST protein, the dotted bar for the kinase domain (residues 53-305) and the black box for the polo-box (residues 410-439). b; GST-fused Plks, expressed in Escherichia coli, were collected with glutathione-agarose, and incubated with the lysate of HL-60 cells. After incubation, GST-fused Plks were precipitated with glutathione-agarose. Hsp90 or α-tubulin associated with GST-fused Plks was detected by Western blotting using an anti-Hsp90 or anti-α-tubulin antibody.

[2] = test system: α-tubulin; test: In vitro binding assay of GST-fused Plk proteins with HL-60 lysate, α-tubulin detected; set-up: species or system human; conditions: 1 μg GST-fused protein, Western blotting
Method: as §1, §2, §3

[3] = test system: Plk protein; test: Western blotting of Plk protein level after geldanamycin treatment; format: cell-based, human; conditions: for Sensitivity of Plk to GA: Western blotting
Method: The cells were lysed with TENSV buffer (Schulte, T. W., et al., J. Biol. Chem., 270, 24585-24588, 1995; Hutchison, K. A., et al., J. Biol. Chem., 267, 13952-13957, 1992) at 4° C. with sonication. The lysates were subjected to electrophoresis on an SDS polyacrylamide gel. Proteins were transferred to Immobilon PVDF membrane (Millipore) and immunoblotted with anti-Plk antibody (Zymed and Santa Cruz), anti-Hsp90 antibody (AC88; Stressgen), anti-GST antibody (Santa Cruz), anti-α-tubulin antibody (Amersham), or anti-Raf-1 antibody (Santa Cruz). Detection was performed with an enhanced chemiluminescence reagent (Pierce).
The immune complexes were collected by immunoprecipitation using anti-Plk antibody and electrophoresed on an SDS-polyacrylamide gel. […] Aliquots of cell lysates were immunoprecipitated with an anti-Plk or anti-Hsp90 antibody. In the same manner, aliquots of non-immunoprecipitated cell lysates were used for Western blotting.
Aliquots of cell lysates were immunoblotted with the indicated antibodies.

[4] = test system: U937 cells; test: Cell viability of geldanamycin-treated U937 cells; format: cell-based, human; conditions: 100 nM

“K82R: GST-fused kinase negative Plk mutant” was tested, and the “binding to Hsp90” value [1] was “can bind”.

In the case of “Plk/A431: GST-fused mutant Plk from A431 cells (S487G, P509S in C-terminus)”, the “binding to Hsp90” value [1] is reported as “unable to bind” and the “association of tubulin with Plk” value [2] is reported as “little effect”.

With `COC1=C2C[C@@H](C)C[C@H](OC)[C@H](O)[C@@H](C)/C=C(\C)[C@H](OC(N)=O)[C@@H](OC)/C=C\C=C(/C)C(=O)NC(=CC1=O)C2=O` [geldanamycin] the “Sensitivity of Plk to GA” value ([3]; A431 cells, Plk S487G, P509S) was “−”, the “Sensitivity of Plk to GA” value ([3]; A549 cells, Plk D457G) was “−” and the “Sensitivity of Plk to GA” value ([3]; HL-60 cells, wt Plk) was “+ (Plk protein decreased after GA treatment.)”. The “Sensitivity of Plk to GA” value ([3]; HeLa cells, wt Plk) was “+ (Plk protein decreased after GA treatment.)”, the “Sensitivity of Plk to GA” value ([3]; Hep G2 cells, Plk N496S, R512W) was “−” and the “Sensitivity of Plk to GA” value ([3]; Jurkat cells, wt Plk) was “+ (Plk protein decreased after GA treatment.)”. For the same molecule, the “Sensitivity of Plk to GA” value ([3]; K562 cells, wt Plk) was “+ (Plk protein decreased after GA treatment.)”, the “Sensitivity of Plk to GA” value ([3]; MKN74 cells, Plk E569K) was “−” and the “Sensitivity of Plk to GA” value ([3]; U937 cells, wt Plk) was “+ (Plk protein decreased after GA treatment.)”. The cell viability ([4]; 12 hours) was “without decreasing cell viability” and the “cell viability (majority of cells died)” value ([4]; after 2 days) was 15.4±3.2%.

`CC(C)C[C@@H](C=O)NC(=O)[C@H](CC(C)C)NC(=O)[C@H](CC(C)C)NC(=O)OCc1ccccc1` [MG132] (Cbz-Leu-Leu-Leu-aldehyde) was tested, and the “geldanamycin-induced destabilization of Plk protein” value ([3]; co-treatment with proteasome inhibitor) was “inhibited”.

“full-length Plk: GST-fused human full-length wild-type Plk expressed in Escherichia coli” was tested, and the “binding to Hsp90” value [1] was “can bind”.

In the case of “Plk/Hep G2: GST-fused mutant Plk from Hep G2 cells (N496S, R512W in C-terminus)”, the “binding to Hsp90” value [1] is reported as “unable to bind” and the “association of tubulin with Plk” value [2] is reported as “little effect”.
